Laboratory results from patent publication US20240389528A1, “PERFORMANCE GAIN IN ALS INHIBITOR HERBICIDE TOLERANT BETA VULGARIS PLANTS BY COMBINATION OF BEST FITTING ALS LARGE AND SMALL SUBUNITS” (BAYER AKTIENGESELLSCHAFT, priority 2021, published 2024).

System: B. vulgaris plants comprising the BvALS_W569L allele
Experiment: Sensitivity of Beta vulgaris plants to ALS inhibitor herbicide (BvALS_W569L allele vs wild type allele)
Type: in vivo

COc1cc(OC)nc(NC(=O)NS(=O)(=O)c2cc(NC=O)ccc2C(=O)N(C)C)n1 [foramsulfuron]
times less sensitive to the ALS inhibitor herbicide compared to B. vulgaris plants comprising a BvALS wild type allele: at least 2000 times
